From PMC10141580, “Cyclic Dichalcogenides Extend the Reach of Bioreductive Prodrugs to Harness Thiol/Disulfide Oxidoreductases: Applications to seco-Duocarmycins Targeting the Thioredoxin System” (ACS Central Science, 2023)
“And” between values parts separate entries of the source, which are not always exact repeats. Identical values can stand only once. Like-named read-outs stand apart in the source and are kept apart here.

System: panel of 140 standard cancer cell lines
Test: ProliFiler-140 cancer cell line screen (CellTiterGlo, 72 h)
Assay type: cell-based
Details: for IC50: Homo sapiens
Experimental: Incubations were performed for 72 h before automated viability readout with CellTiterGlo (Figure 8).
End of Figure S11 (part 5 of 5): ProliFiler-140 cancer cell line screening for cytotoxicity of the prodrugs.
8-data-point dose response curves from CellTiter-Glo® viability readout.
ProliFiler-140 cell line panel part V

What does the source list for `COc1cc2cc(C(=O)N3C[C@@H](CCl)c4c3cc(OC(=O)N3CCN(C(=O)CCC(=O)N5CCN(C)CC5)[C@H]5CSSC[C@H]53)c3ccccc43)[nH]c2c(OC)c1OC` [P-SS66C-CBI-TMI]?
IC50 (KG-1a, read-out: IC50 [M] (ProliFiler-140), KG-1 a (Blood)): 1.07e-07 M; IC50 (KMS-12-BM, read-out: IC50 [M] (ProliFiler-140), KMS-12-BM (Blood)): 3.3e-08 M; IC50 (LN-229, read-out: IC50 [M] (ProliFiler-140), LN229 (Brain)): 1.33e-07 M; IC50 (LNCaP, read-out: IC50 [M] (ProliFiler-140), LnCap (Prostate)): 2.7e-08 M; IC50 (LoVo, read-out: IC50 [M] (ProliFiler-140), LOVO (Colon)): 1.93e-08 M; IC50 (MCF7, MCF-7): 3.1e-08 M; IC50 (MCF7, read-out: IC50 [M] (ProliFiler-140), MCF-7 (Breast)): 3.1e-08 M; IC50 (MDA-MB-231, read-out: IC50 [M] (ProliFiler-140), MDA MB 231 (Breast)): 1.36e-07 M; IC50 (MDA-MB-435, MDA MB 435 (Skin), read-out: IC50 [M] (ProliFiler-140)): 1.3e-07 M; IC50 (MDA-MB-468, MDA-MB-468): 1.9e-08 M; IC50 (MDA-MB-468, read-out: IC50 [M] (ProliFiler-140), MDA-MB-468 (Breast)): 1.9e-08 M; IC50 (MEC1, read-out: IC50 [M] (ProliFiler-140), MEC-1 (Blood)): 1.1e-08 M; IC50 (MIA PaCa-2, read-out: IC50 [M] (ProliFiler-140), Mia PaCA 2 (Pancreas)): 8.56e-08 M; IC50 (MKN-1, read-out: IC50 [M] (ProliFiler-140), MKN-1 (Stomach)): 1.4e-07 M; IC50 (MKN-45, read-out: IC50 [M] (ProliFiler-140), MKN-45 (Stomach)): 8.2e-08 M; IC50 (MOLM-13, read-out: IC50 [M] (ProliFiler-140), MOLM-13 (Blood)): 5.3e-09 M; IC50 (MOLT-4, read-out: IC50 [M] (ProliFiler-140), MOLT-4 (Blood)): 8.6e-09 M; IC50 (MV4-11, read-out: IC50 [M] (ProliFiler-140), MV4-11 (Blood)): 1.5e-09 M; IC50 (NALM-6, read-out: IC50 [M] (ProliFiler-140), NALM-6 (Blood)): 2.47e-09 M; IC50 (NCI-H82, read-out: IC50 [M] (ProliFiler-140), NCI-H82 (Lung)): 8.8e-08 M; IC50 (NCI-H292, read-out: IC50 [M] (ProliFiler-140), NCI-H292 (Lung)): 3.8e-08 M; IC50 (NCI-H441, read-out: IC50 [M] (ProliFiler-140), NCI-H441 (Lung)): 5.05e-08 M; IC50 (NCI-H460, read-out: IC50 [M] (ProliFiler-140), H460 (Lung)): 5.5e-09 M; IC50 (NCI-H838, read-out: IC50 [M] (ProliFiler-140), NCI-H838 (Lung)): 7.4e-08 M; IC50 (NCI-H1048, read-out: IC50 [M] (ProliFiler-140), NCI-H1048 (Lung)): 4e-09 M; IC50 (NCI-H1299, read-out: IC50 [M] (ProliFiler-140), H1299 (Lung)): 5.38e-08 M; IC50 (NCI-H1437, read-out: IC50 [M] (ProliFiler-140), NCI-H1437 (Lung)): 1.85e-08 M; IC50 (NCI-H1563, read-out: IC50 [M] (ProliFiler-140), NCI-H1563 (Lung)): 1.1e-07 M; IC50 (NCI-H1573, read-out: IC50 [M] (ProliFiler-140), NCI-H1573 (Lung)): 9e-08 M; IC50 (NCI-H1581, read-out: IC50 [M] (ProliFiler-140), NCI-H1581 (Lung)): 4.66e-08 M; IC50 (NCI-H1703, read-out: IC50 [M] (ProliFiler-140), NCI-H1703 (Lung)): 5.1e-08 M; IC50 (NCI-H1838, read-out: IC50 [M] (ProliFiler-140), NCI-H1838 (Lung)): 7.7e-08 M; IC50 (NCI-H2009, read-out: IC50 [M] (ProliFiler-140), NCI-H2009 (Lung)): 2.66e-08 M; IC50 (NCI-H2228, read-out: IC50 [M] (ProliFiler-140), H2228 (Lung)): 4.53e-08 M; IC50 (NCI-H2286, read-out: IC50 [M] (ProliFiler-140), NCI-H2286 (Lung)): 1.7e-08 M; IC50 (NCI-N87, read-out: IC50 [M] (ProliFiler-140), NCI-N87 (Stomach)): 7.5e-08 M; IC50 (OCI-AML-3, read-out: IC50 [M] (ProliFiler-140), OCI-AML3 (Blood)): 1.3e-08 M; IC50 (OCI-AML-5, read-out: IC50 [M] (ProliFiler-140), OCI-AML5 (Blood)): 6e-09 M; IC50 (OCI-LY19, read-out: IC50 [M] (ProliFiler-140), OCI-LY19 (Blood)): 2.83e-09 M; IC50 (OPM-2, read-out: IC50 [M] (ProliFiler-140), OPM-2 (Blood)): 2.61e-08 M; IC50 (OVCAR-3, read-out: IC50 [M] (ProliFiler-140), OVCAR-3 (Ovary)): 7.9e-08 M; IC50 (P31-FUJ, read-out: IC50 [M] (ProliFiler-140), P31/FUJ (Blood)): 2.3e-08 M; IC50 (PANC-1, read-out: IC50 [M] (ProliFiler-140), PANC-1 (Pancreas)): 2e-07 M; IC50 (RL95-2, read-out: IC50 [M] (ProliFiler-140), RL95-2 (Endometrium)): 1.25e-07 M; IC50 (RPMI-8226, RPMI 8226): 1.2e-08 M; IC50 (RPMI-8226, read-out: IC50 [M] (ProliFiler-140), RPMI 8226 (Blood)): 1.19e-08 M; IC50 (SAOS-2, read-out: IC50 [M] (ProliFiler-140), Saos-2 EC (Bone)): 6.63e-08 M; IC50 (SCLC-21H, read-out: IC50 [M] (ProliFiler-140), SCLC-21H (Lung)): 2.56e-08 M; IC50 (SJSA-1, read-out: IC50 [M] (ProliFiler-140), SJSA-1 (Bone)): 9.77e-08 M; IC50 (SK-BR-3, read-out: IC50 [M] (ProliFiler-140), SK-BR-3 (Breast)): 4.2e-08 M; IC50 (SK-ES1, read-out: IC50 [M] (ProliFiler-140), SK-ES-1 (Bone)): 2.71e-09 M; IC50 (SK-LU-1, read-out: IC50 [M] (ProliFiler-140), SK-LU-1 (Lung)): 2.3e-08 M; IC50 (SK-MEL3, read-out: IC50 [M] (ProliFiler-140), SK-MEL-3 (Skin)): 1.6e-07 M; IC50 (SK-N-FI, read-out: IC50 [M] (ProliFiler-140), SK-N-FI (Brain)): 1.39e-07 M; IC50 (SK-N-MC, read-out: IC50 [M] (ProliFiler-140), SK-N-MC (Brain)): 1.6e-09 M; IC50 (SK-N-SH, read-out: IC50 [M] (ProliFiler-140), SK-N-SH (Brain)): 1.1e-07 M; IC50 (SK-OV-3, read-out: IC50 [M] (ProliFiler-140), SK-OV3 (Ovary)): 3.72e-08 M; IC50 (SNU1, read-out: IC50 [M] (ProliFiler-140), SNU-1 (Stomach)): 2.3e-08 M; IC50 (SNU-16, read-out: IC50 [M] (ProliFiler-140), SNU-16 (Stomach)): 6.23e-08 M; IC50 (SU-DHL-5, read-out: IC50 [M] (ProliFiler-140), SU-DHL-5 (Blood)): 2.6e-09 M; IC50 (SW480, read-out: IC50 [M] (ProliFiler-140), SW480 (Colon)): 5.51e-08 M; IC50 (SW948, read-out: IC50 [M] (ProliFiler-140), SW948 (Colon)): 1.43e-07 M; IC50 (SW1783, read-out: IC50 [M] (ProliFiler-140), SW-1783 (Brain)): 4.85e-08 M; IC50 (SW-620, SW620): 1.5e-07 M; IC50 (SW-620, read-out: IC50 [M] (ProliFiler-140), SW620 (Colon)): 1.53e-07 M; IC50 (SiHa, read-out: IC50 [M] (ProliFiler-140), SiHa (Ovary)): 1.13e-07 M; IC50 (T47D, T-47D): 9.8e-08 M; IC50 (T47D, read-out: IC50 [M] (ProliFiler-140), T-47D (Breast)): 9.8e-08 M; IC50 (T98G, read-out: IC50 [M] (ProliFiler-140), T98G (Brain)): 8.08e-08 M; IC50 (U2OS, read-out: IC50 [M] (ProliFiler-140), U2OS (Bone)): 3.19e-08 M; IC50 (U-87 MG, read-out: IC50 [M] (ProliFiler-140), U87MG (Brain)): 1.5e-07 M; IC50 (U-118-MG, read-out: IC50 [M] (ProliFiler-140), U118MG (Brain)): 1.86e-07 M; IC50 (U-251, read-out: IC50 [M] (ProliFiler-140), U251MG (Brain)): 1.2e-07 M; IC50 (U-266, read-out: IC50 [M] (ProliFiler-140), U-266 (Blood)): 9.38e-09 M; IC50 (U-937, read-out: IC50 [M] (ProliFiler-140), U-937 (Blood)): 1.15e-08 M; IC50 (ZR-75-1, read-out: IC50 [M] (ProliFiler-140), ZR-75-1 (Breast)): 3.07e-07 M; Reductive Activation Index (Hs 746T (Stomach)): 13; Reductive Activation Index (HuH7 (Liver)): 6.45; Reductive Activation Index (Hutu 80 (Duodenum)): 5.62 and 5.6; Reductive Activation Index (JIMT-1 (Breast)): 15; Reductive Activation Index (K562 (Blood)): 8.6; Reductive Activation Index (KARPAS 299 (Blood)): 6.55; Reductive Activation Index (KG-1 (Blood)): 3.24
